From patent US8440648B2, “Methods and compositions for treatment of intraepithelial neoplasia” (Erimos Pharmaceuticals LLC, priority 2004, dated 2013)

Legend:
[1] = system: Cervical Intraepithelial Neoplasia (CIN); test: Pilot clinical trial of intravaginal M4N: preliminary efficacy from cervical biopsies; assay type: in vivo, women; conditions: three patients, 3 weekly doses of 1% M4N in white petrolatum
Description: (§1) This study was designed to look at the systemic and local toxicity of tetra-O-methyl NDGA (M4N) administered intravaginally to women once a week for three weeks. Patients, at the time of screening, had visible cervical lesions, were HPV positive, and had previous biopsy confirmed Cervical Intraepithelial Neoplasia (CIN). Cervical biopsies were taken at Day 1 and follow up biopsies were taken at Day 71. Five patients have been enrolled in the study, and three patients have completed the study through Day 71.
Preliminary efficacy data was collected from cervical biopsies at Day 1 and Day 71 from the three patients that completed the Day 71 visit after receiving 3 doses of the 1% formulation of M4N.

[2] = Pilot clinical trial of intravaginal M4N: serum levels; assay type: in vivo; conditions: after intravaginal administration of the 1% formulation in white petrolatum, women
Description: as §1
(§2) The first four patients received 5 mL of a 1% formulation of M4N in white petrolatum once weekly for each of three weekly doses. […] One patient received 5 mL of a 2% M4N formulation in white petrolatum at each of two weekly doses to date. […] The relationship to the study drug administration is unknown.

[3] = system: women with Cervical Intraepithelial Neoplasia; test: Pilot clinical trial of intravaginal M4N: systemic and local toxicity; assay type: in vivo
Description: as §1, §2

[4] = Serum levels of M4N in the fourteen day rabbit intravaginal study; assay type: in vivo, New Zealand White rabbits; conditions: M4N 20 mg/g in white petrolatum, 1 mL intravaginally daily, rabbits; levels inconsistent, minimal absorption
Protocol: Fourteen Day Rabbit Intravaginal Topical Toxicology Study. […] Ten female rabbits (5 per group) were dosed.

[5] = system: New Zealand White rabbits; test: Fourteen day rabbit intravaginal topical toxicology study (local and systemic toxicity); conditions: M4N 20 mg/g in white petrolatum
Protocol: This study was designed to look at the local and systemic toxicity of tetra-O-methyl NDGA (M4N) administered intravaginally in New Zealand White rabbits for 14 days. Rabbits were dosed daily with 1 mL of a white petrolatum formulation of M4N (20 mg/g) or placebo. Ten female rabbits (5 per group) were dosed. Local effects of drug were scored using the Draize scoring system daily, and gross pathology and histopathology was obtained at necropsy on termination of the dosing period.

[6] = 1 mL intravaginally daily for 14 days

**Q.** Which results are given for `COc1ccc(C[C@@H](C)[C@@H](C)Cc2ccc(OC)c(OC)c2)cc1OC` [M4N, meso-1,4-bis(3,4-dimethoxyphenyl)-2,3-dimethylbutane]?
**A.** Response in cervical biopsies, Day 71 versus Day 1 [1]: one patient had a complete response, one patient had a partial response, and one patient showed disease progression; Serum levels [2]: below limit of quantification; Irritation or toxicity ([3]; 5 mL of 1% M4N in white petrolatum intravaginally once weekly, three doses, four patients): No irritation or toxicity was reported; Vaginal irritation or toxicity ([3]; 5 mL of 2% M4N in white petrolatum intravaginally, two weekly doses, one patient): No vaginal irritation or toxicity was reported; Vulvar irritation ([3]; 5 mL of 2% M4N in white petrolatum intravaginally, two weekly doses, one patient, relationship to drug unknown): minor vulvar irritation was reported; Serum level at peak concentration [4]: less than 10 ng/mL; Vaginal observations: mild edema, animals affected [5, 6]: 2/5; Vaginal observations: mild erythema, animals affected [5, 6]: 3/5; Survival until scheduled termination ([5]; 1 mL intravaginally daily for 14 days, rabbits): All animals survived until scheduled termination; Vaginal observations: minimal edema, animals affected ([5]; 1 mL intravaginally daily for 14 days, control 2/5): 1/5; Weekly clinical and twice daily cage-side observations ([5]; intravaginally daily for 14 days): No findings were noted; Clinical pathology findings ([5]; intravaginally daily for 14 days, considered incidental): lower absolute basophil counts, and ALT values; Histopathology findings ([5]; intravaginally daily for 14 days, relation to drug unknown): in one M4N-treated rabbit, heterophil infiltrates were seen in the vaginal mucosa
